In patent US3978130A, “1-Cyclopropyl-1-phenyl-ω-amino-1-alkanols” (A. H. Robins Company, Incorporated, priority 1974, dated 1976):
Where a name gives a salt, the structure may show the parent alone.

System: depressant effects induced in mice by tetrabenazine
Assay: Blocking of the depressant effects induced in mice by intravenous tetrabenazine (modified Englehardt procedure)
Assay type: in vivo
Conditions: Mus musculus, IP
Description: The activity of the compounds was determined by their effectiveness in blocking the depressant effects which are induced in mice by the intravenous administration of 2-oxo-3-isobutyl-9,10-dimethoxy-1,2,3,4,6,7-hexahydro-11bh-benzo[a] quinolizine (tetrabenazine). The procedure used was a modification of Englehardt, E. L. et al, J. Med. Chem. 11 (2), 325(1968). The ED50 values of the compounds are given in Table I; the compounds of Examples 3, 5, 7 and 8 are the preferred compounds.

Row | SMILES | ED50
1 | CN(C)CCC(O)(c1ccccc1)C1CC1 (centres unmarked) [Example 1, 1-Cyclopropyl-3-dimethylamino-1-phenyl-1-propanol Hydrochloride] | 10 mg/kg
2 | CN(C)CCCC(O)(c1ccccc1)C1CC1 (centres unmarked) [Example 2, 1-Cyclopropyl-4-dimethylamino-1-phenyl-1-butanol Hydrochloride] | 12.5 mg/kg
3 | CN(C)CCC(O)(c1cccc(Cl)c1)C1CC1 (centres unmarked) [Example 3, 1-Cyclopropyl-3-dimethylamino-1-(3-chlorophenyl)-1-propanol Hydrochloride] | 6.4 mg/kg
4 | COc1ccc(C(O)(CCN(C)C)C2CC2)cc1 (centres unmarked) [Example 4, 1-Cyclopropyl-3-dimethylamino-1-(4-methoxyphenyl)-1-propanol Hydrobromide] | 7.8 mg/kg
5 | CN(C)CCC(O)(c1cccc(C(F)(F)F)c1)C1CC1 (centres unmarked) [Example 5, 1-Cyclopropyl-3-dimethylamino-1-(3-trifluoromethylphenyl)-1-propanol Hydrochloride] | 2.5 mg/kg
6 | CN(C)CCC(O)(c1ccc(C(F)(F)F)cc1)C1CC1 (centres unmarked) [Example 6, 1-Cyclopropyl-3-dimethylamino-1-(4-trifluoromethylphenyl)-1-propanol Hydrochloride] | 12 mg/kg
7 | CCN(CC)CCC(O)(c1cccc(C(F)(F)F)c1)C1CC1 (centres unmarked) [Example 7, 1-Cyclopropyl-3-diethylamino-1-(3-trifluoromethylphenyl)-1-propanol Hydrochloride] | 4.2 mg/kg
8 | CNCCC(O)(c1cccc(C(F)(F)F)c1)C1CC1 (centres unmarked) [Example 8, 1-Cyclopropyl-3-methylamino-1-(3-trifluoromethylphenyl)-1-propanol] | 4.6 mg/kg
